Columns and labels:
Type in all cases: in vivo
SD rats [1] = assay: Hot plate paw withdrawal time, rat sciatica model, intervertebral disc compression (SNL) (Example 32); conditions: for time the analgesic effect can reach: conjugate 10/11/12 at 32/24/48 mg/kg
Description: Intervertebral disc compression (SNL): This model is a pathological form that simulates clinical disc herniation. The specific method is to remove the autogenous caudal intervertebral disc tissue (annulus fibrosus and nucleus pulposus) form the rats and place the caudal intervertebral disc tissue between the proximal nerve root of the L5 dorsal root ganglion and the lower vertebral body to directly compress the L5 nerve root, wherein damage to the L5 nerve root or dorsal root ganglion should be avoided during the operation. 3 to 15 days after the model is successful, rats develop significant hyperalgesia, so the administration time we chose is between 3 days and 15 days.
Qualified rats are randomly divided into 5 groups, 6 rats in each group, which are labeled as groups G1, G2, G3, G4 and G5, respectively. Administration by intramuscular injection around sciatic nerve is adopted, and the grouping information of the experimental animals is shown in Table 11.
(§1) Sensory block (hot plate paw withdrawal time): The sensory block of the rat is examined by a hot plate method, and the hot plate is heated to (56±1)° C., and one of the hind paws of the rat is placed on the hot plate, the other hind paw is in the laboratory room temperature condition, and the tested paw withdrawal time is observed and recorded. The average value of two to three times measured is recorded as a pain threshold. In order to avoid the damage of the experimental animal body, if the rat has no paw withdrawal in the hot plate experiment for more than 15 s, the paws should be removed from the hot plate, and the experimental result is recorded as 15 s. The time point for determining the withdrawal time of the hot plate is before administration, and 0.5 h, 1 h, 2 h, 4 h, 6 h, 8 h, 12 h, and 24 h after administration.

SD rats [2] = assay: Hot plate paw withdrawal time, rat plantar incision model (Example 31); conditions: for time the analgesic effect can reach: conjugate 10/11/12 at 32/24/48 mg/kg
Description: (§2) After SD rats inhale anesthesia (isoflurane), an incision of about 1 cm in length from the proximal end of the pelma to the toe is made: after the skin and fascia are cut, the plantar muscle is picked up with an ophthalmic forceps and cut longitudinally (maintaining the starting and ending point and attachment of muscles); pressing is carried out for hemostasis, physiological saline and test drugs are injected into the muscles of animal's legs, and then the pain threshold detection is performed by the hot plate method. Within 24 hours after the model is successful, the rats develop significant hyperalgesia. Qualified rats are randomly divided into 5 groups, 6 rats in each group, which are labeled as groups G1, G2, G3, G4 and G5, respectively. The plantar subcutaneous injection method for administration is used, and the grouping information of the experimental animals is shown in Table 8.
as §1, with “determining the paw withdrawal time” for “determining the withdrawal time”

SD rats [3] = assay: Motor block four-level score, rat plantar incision model (Example 31); design: key to motor function score: 1 = normal paw movement to 4 = complete loss of movement with gait defect; conditions: for motor function score: bupivacaine 8, conjugate 10/11/12 32/24/48 mg/kg; for effect on motor function of SD rats: conjugate 10/11/12 at 32/24/48 mg/kg
Description: as §2
Motor block (four-level score): The exercise condition of each group of rats is evaluated by the motor block four-level scoring method. The scoring criteria are: paws can be dorsiflexed, stretched, valgus and other normal exercises, scored by 1 point; paws can be dorsiflexed, bendable or after the adduction, although the paws can be stretched, the stretching ability is weakened, scored by 2 points; the paws can perform dorsiflexion, but no longer has the ability to stretch, scored by 3 points; the paws completely lose the ability of dorsiflexion, curling and stretching, and the rats produce a gait defect, scored by 4 points. The time point for measuring the motor block score is before administration, and 0.5 h, 1 h, 2 h, 4 h, 6 h, 8 h, 12 h, and 24 h after administration.

[4] = 0 h (after surgery, before administration), bupivacaine 8, conjugate 10/11/12 32/24/48 mg/kg
[5] = 0.5 h after intramuscular injection around sciatic nerve, bupivacaine 8, conjugate 10/11/12 32/24/48 mg/kg
[6] = 1 h after intramuscular injection around sciatic nerve, bupivacaine 8, conjugate 10/11/12 32/24/48 mg/kg
[7] = 2 h after intramuscular injection around sciatic nerve, bupivacaine 8, conjugate 10/11/12 32/24/48 mg/kg
[8] = 4 h after intramuscular injection around sciatic nerve, bupivacaine 8, conjugate 10/11/12 32/24/48 mg/kg
[9] = 6 h after intramuscular injection around sciatic nerve, bupivacaine 8, conjugate 10/11/12 32/24/48 mg/kg
[10] = 8 h after intramuscular injection around sciatic nerve, bupivacaine 8, conjugate 10/11/12 32/24/48 mg/kg
[11] = 12 h after intramuscular injection around sciatic nerve, bupivacaine 8, conjugate 10/11/12 32/24/48 mg/kg
[12] = 24 h after intramuscular injection around sciatic nerve, bupivacaine 8, conjugate 10/11/12 32/24/48 mg/kg
[13] = before surgery, bupivacaine 8, conjugate 10/11/12 32/24/48 mg/kg (as bupivacaine)
[14] = 0.5 h after plantar subcutaneous injection, bupivacaine 8, conjugate 10/11/12 32/24/48 mg/kg
[15] = 1 h after plantar subcutaneous injection, bupivacaine 8, conjugate 10/11/12 32/24/48 mg/kg
[16] = 2 h after plantar subcutaneous injection, bupivacaine 8, conjugate 10/11/12 32/24/48 mg/kg
[17] = 4 h after plantar subcutaneous injection, bupivacaine 8, conjugate 10/11/12 32/24/48 mg/kg
[18] = 6 h after plantar subcutaneous injection, bupivacaine 8, conjugate 10/11/12 32/24/48 mg/kg
[19] = 8 h after plantar subcutaneous injection, bupivacaine 8, conjugate 10/11/12 32/24/48 mg/kg
[20] = 12 h after plantar subcutaneous injection, bupivacaine 8, conjugate 10/11/12 32/24/48 mg/kg
[21] = 24 h after plantar subcutaneous injection, bupivacaine 8, conjugate 10/11/12 32/24/48 mg/kg
[22] = base value before surgery, bupivacaine 8, conjugate 10/11/12 32/24/48 mg/kg (as bupivacaine)
[23] = bupivacaine 8, conjugate 10/11/12 32/24/48 mg/kg

Substance | hot plate paw withdrawal time (SD rats [1]; [4]) [s] | hot plate paw withdrawal time (SD rats [1]; [5]) [s] | hot plate paw withdrawal time (SD rats [1]; [6]) [s] | hot plate paw withdrawal time (SD rats [1]; [7]) [s] | hot plate paw withdrawal time (SD rats [1]; [8]) [s] | hot plate paw withdrawal time (SD rats [1]; [9]) [s] | hot plate paw withdrawal time (SD rats [1]; [10]) [s] | hot plate paw withdrawal time (SD rats [1]; [11]) [s] | hot plate paw withdrawal time (SD rats [1]; [12]) [s] | hot plate paw withdrawal time (SD rats [1]; [13]) [s] | time the analgesic effect can reach (SD rats [1]) [h] | hot plate paw withdrawal time (SD rats [2]; [4]) [s] | hot plate paw withdrawal time (SD rats [2]; [14]) [s] | hot plate paw withdrawal time (SD rats [2]; [15]) [s] | hot plate paw withdrawal time (SD rats [2]; [16]) [s] | hot plate paw withdrawal time (SD rats [2]; [17]) [s] | hot plate paw withdrawal time (SD rats [2]; [18]) [s] | hot plate paw withdrawal time (SD rats [2]; [19]) [s] | hot plate paw withdrawal time (SD rats [2]; [20]) [s] | hot plate paw withdrawal time (SD rats [2]; [21]) [s] | further results
8-Arm-PEG-Bupivacaine, 20K [bupivacaine conjugate 10] | 2.41 | 6.52 | 10.12 | 11.43 | 9.83 | 8.10 | 6.91 | 1.96 | 2.18 | 4.98 | 8 | 1.41 | 6.52 | 7.91 | 6.21 | 6.79 | 7.42 | 7.43 | 2.10 | 1.32 | hot plate paw withdrawal time (SD rats [2]; [22]): 5.20 s; time the analgesic effect can reach (SD rats [2]): 8 h; motor function score (SD rats [3]; 0 h (before administration)): 1 ± 0; motor function score (SD rats [3]; 0.5 h): 1 ± 0; motor function score (SD rats [3]; 1 h): 1.75 ± 0.5; motor function score (SD rats [3]; 2 h): 1.75 ± 0.5; motor function score (SD rats [3]; 4 h): 1.75 ± 0.5; motor function score (SD rats [3]; 6 h): 1.75 ± 0.5; motor function score (SD rats [3]; 8 h): 1.75 ± 0.5; motor function score (SD rats [3]; 12 h): 1 ± 0; motor function score (SD rats [3]; 24 h): 1 ± 0; effect on motor function of SD rats (SD rats [3]): does not affect the motor function
8-Arm-PEG-Bupivacaine, 20K [bupivacaine conjugate 11] | 2.14 | 7.43 | 8.49 | 9.10 | 8.31 | 7.10 | 1.97 | 2.71 | 2.76 | 5.15 | ≥ 6 | 1.26 | 7.43 | 8.49 | 9.10 | 7.91 | 8.65 | 2.19 | 1.89 | 1.56 | time after administration at which hot plate paw withdrawal time is significantly higher than vehicle group (SD rats [1]; [23]): ≤ 6 h; hot plate paw withdrawal time (SD rats [2]; [22]): 4.97 s; time after administration at which hot plate paw withdrawal time is significantly higher than vehicle group (SD rats [2]; [23]): ≤ 6 h; time the analgesic effect can reach (SD rats [2]): ≥ 6 h; motor function score (SD rats [3]; 0 h (before administration)): 1 ± 0; motor function score (SD rats [3]; 0.5 h): 1 ± 0; motor function score (SD rats [3]; 1 h): 1 ± 0; motor function score (SD rats [3]; 2 h): 1 ± 0; motor function score (SD rats [3]; 4 h): 1 ± 0; motor function score (SD rats [3]; 6 h): 1 ± 0; motor function score (SD rats [3]; 8 h): 1 ± 0; motor function score (SD rats [3]; 12 h): 1 ± 0; motor function score (SD rats [3]; 24 h): 1 ± 0; effect on motor function of SD rats (SD rats [3]): does not affect the motor function
8-Arm-PEG-Bupivacaine, 20K [bupivacaine conjugate 12] | 1.89 | 8.13 | 7.21 | 6.12 | 2.98 | 2.91 | 2.18 | 1.85 | 2.56 | 5.51 | 2 | 1.89 | 8.13 | 7.21 | 6.12 | 2.49 | 2.34 | 2.10 | 1.92 | 1.76 | time after administration at which hot plate paw withdrawal time is significantly higher than vehicle group (SD rats [1]; [23]): ≤ 2 h; hot plate paw withdrawal time (SD rats [2]; [22]): 5.81 s; time after administration at which hot plate paw withdrawal time is significantly higher than vehicle group (SD rats [2]; [23]): ≤ 2 h; time the analgesic effect can reach (SD rats [2]): 2 h; motor function score (SD rats [3]; 0 h (before administration)): 1 ± 0; motor function score (SD rats [3]; 0.5 h): 1 ± 0; motor function score (SD rats [3]; 1 h): 1 ± 0; motor function score (SD rats [3]; 2 h): 1 ± 0; motor function score (SD rats [3]; 4 h): 1 ± 0; motor function score (SD rats [3]; 6 h): 1 ± 0; motor function score (SD rats [3]; 8 h): 1 ± 0; motor function score (SD rats [3]; 12 h): 1 ± 0; motor function score (SD rats [3]; 24 h): 1 ± 0; effect on motor function of SD rats (SD rats [3]): does not affect the motor function
